Experiments:
[1] = molecular target: GABA-A receptor; anion channel (Rattus norvegicus) (UniProt O09028+P15431+P18506+P18508+P19969+P20236+P23574+P23576+P28471+P28473+P30191+P62813+P63079+P63138+Q91ZM7+Q9ES14); conditions: Compound concentration 10.0 uM
[2] = molecular target: 5-hydroxytryptamine receptor 6 (Homo sapiens) (UniProt P50406); conditions: Compound concentration 10.0 uM
[3] = molecular target: Ribosomal protein S6 kinase alpha-5 (Homo sapiens) (UniProt O75582); conditions: Compound concentration 1000.0 nM
[4] = molecular target: Serine/threonine-protein kinase STK11 (Homo sapiens) (UniProt Q15831); conditions: Compound concentration 1000.0 nM
[5] = molecular target: Ephrin type-A receptor 2 (Homo sapiens) (UniProt P29317); conditions: Compound concentration 1000.0 nM
[6] = molecular target: Serine/threonine-protein kinase NIM1 (Homo sapiens) (UniProt Q8IY84); conditions: Compound concentration 1000.0 nM
[7] = molecular target: Casein kinase I isoform alpha-like (Homo sapiens) (UniProt Q8N752); conditions: Compound concentration 1000.0 nM
[8] = molecular target: Mitogen-activated protein kinase 8 (Homo sapiens) (UniProt P45983); conditions: Compound concentration 1000.0 nM
[9] = molecular target: Receptor-type tyrosine-protein kinase FLT3 (Homo sapiens) (UniProt P36888); conditions: Compound concentration 1000.0 nM
[10] = molecular target: Serine/threonine-protein kinase pim-2 (Homo sapiens) (UniProt Q9P1W9); conditions: Compound concentration 1000.0 nM
[11] = molecular target: Mitogen-activated protein kinase 11 (Homo sapiens) (UniProt Q15759); conditions: Compound concentration 1000.0 nM
[12] = system: Epidermal growth factor receptor (Homo sapiens), P00533 [G719S]; conditions: Compound concentration 1000.0 nM
[13] = molecular target: Cyclin-dependent kinase-like 2 (Homo sapiens) (UniProt Q92772); conditions: Compound concentration 1000.0 nM
[14] = molecular target: Mitogen-activated protein kinase kinase kinase 9 (Homo sapiens) (UniProt P80192); conditions: Compound concentration 1000.0 nM
[15] = molecular target: Tyrosine-protein kinase Lyn (Homo sapiens) (UniProt P07948); conditions: Compound concentration 1000.0 nM
[16] = molecular target: Phosphatidylinositol 4-kinase beta (Homo sapiens) (UniProt Q9UBF8); conditions: Compound concentration 1000.0 nM
[17] = molecular target: Angiopoietin-1 receptor (Homo sapiens) (UniProt Q02763); conditions: Compound concentration 1000.0 nM
[18] = molecular target: Serine/threonine-protein kinase DCLK2 (Homo sapiens) (UniProt Q8N568); conditions: Compound concentration 1000.0 nM
[19] = molecular target: SRSF protein kinase 2 (Homo sapiens) (UniProt P78362); conditions: Compound concentration 1000.0 nM
[20] = molecular target: Serine/threonine-protein kinase MAK (Homo sapiens) (UniProt P20794); conditions: Compound concentration 1000.0 nM
[21] = molecular target: D(2) dopamine receptor (Homo sapiens) (UniProt P14416); conditions: Compound concentration 10.0 uM
[22] = molecular target: Cyclin-dependent kinase 4 (Homo sapiens) (UniProt P11802); conditions: Compound concentration 1000.0 nM
[23] = molecular target: Serine/threonine-protein kinase PRP4 homolog (Homo sapiens) (UniProt Q13523); conditions: Compound concentration 1000.0 nM
[24] = molecular target: Serine/threonine-protein kinase ICK (Homo sapiens) (UniProt Q9UPZ9); conditions: Compound concentration 1000.0 nM
[25] = molecular target: Mitogen-activated protein kinase kinase kinase kinase 3 (Homo sapiens) (UniProt Q8IVH8); conditions: Compound concentration 1000.0 nM
[26] = system: Receptor-type tyrosine-protein kinase FLT3 (Homo sapiens), P36888 [D835V]; conditions: Compound concentration 1000.0 nM
[27] = molecular target: MAP kinase-interacting serine/threonine-protein kinase 1 (Homo sapiens) (UniProt Q9BUB5); conditions: Compound concentration 1000.0 nM
[28] = molecular target: Mitogen-activated protein kinase kinase kinase 14 (Homo sapiens) (UniProt Q99558); conditions: Compound concentration 1000.0 nM
[29] = molecular target: Citron Rho-interacting kinase (Homo sapiens) (UniProt O14578); conditions: Compound concentration 1000.0 nM
[30] = molecular target: MAP kinase-activated protein kinase 2 (Homo sapiens) (UniProt P49137); conditions: Compound concentration 1000.0 nM
[31] = molecular target: Serine/threonine-protein kinase tousled-like 2 (Homo sapiens) (UniProt Q86UE8); conditions: Compound concentration 1000.0 nM
[32] = molecular target: Ephrin type-A receptor 3 (Homo sapiens) (UniProt P29320); conditions: Compound concentration 1000.0 nM
[33] = molecular target: Mitogen-activated protein kinase 4 (Homo sapiens) (UniProt P31152); conditions: Compound concentration 1000.0 nM
[34] = molecular target: Mitogen-activated protein kinase kinase kinase 13 (Homo sapiens) (UniProt O43283); conditions: Compound concentration 1000.0 nM
[35] = molecular target: Myosin light chain kinase, smooth muscle (Homo sapiens) (UniProt Q15746); conditions: Compound concentration 1000.0 nM
[36] = molecular target: Macrophage-stimulating protein receptor (Homo sapiens) (UniProt Q04912); conditions: Compound concentration 1000.0 nM
[37] = system: Receptor-type tyrosine-protein kinase FLT3 (Homo sapiens), P36888 [UNDEFINED MUTATION]; conditions: Compound concentration 1000.0 nM
[38] = molecular target: Mitogen-activated protein kinase 6 (Homo sapiens) (UniProt Q16659); conditions: Compound concentration 1000.0 nM
[39] = molecular target: Tyrosine-protein kinase JAK2 (Homo sapiens) (UniProt O60674); conditions: Compound concentration 1000.0 nM
[40] = molecular target: Ribosomal protein S6 kinase alpha-1 (Homo sapiens) (UniProt Q15418); conditions: Compound concentration 1000.0 nM
[41] = molecular target: Alpha-2A adrenergic receptor (Homo sapiens) (UniProt P08913); conditions: Compound concentration 10.0 uM
[42] = molecular target: Serine/threonine-protein kinase 36 (Homo sapiens) (UniProt Q9NRP7); conditions: Compound concentration 1000.0 nM
[43] = molecular target: Ankyrin repeat and protein kinase domain-containing protein 1 (Homo sapiens) (UniProt Q8NFD2); conditions: Compound concentration 1000.0 nM
[44] = molecular target: 5'-AMP-activated protein kinase catalytic subunit alpha-2 (Homo sapiens) (UniProt P54646); conditions: Compound concentration 1000.0 nM

Mitogen-activated protein kinase kinase kinase 9 (Homo sapiens), sequence (P80192 whole entry, looked up): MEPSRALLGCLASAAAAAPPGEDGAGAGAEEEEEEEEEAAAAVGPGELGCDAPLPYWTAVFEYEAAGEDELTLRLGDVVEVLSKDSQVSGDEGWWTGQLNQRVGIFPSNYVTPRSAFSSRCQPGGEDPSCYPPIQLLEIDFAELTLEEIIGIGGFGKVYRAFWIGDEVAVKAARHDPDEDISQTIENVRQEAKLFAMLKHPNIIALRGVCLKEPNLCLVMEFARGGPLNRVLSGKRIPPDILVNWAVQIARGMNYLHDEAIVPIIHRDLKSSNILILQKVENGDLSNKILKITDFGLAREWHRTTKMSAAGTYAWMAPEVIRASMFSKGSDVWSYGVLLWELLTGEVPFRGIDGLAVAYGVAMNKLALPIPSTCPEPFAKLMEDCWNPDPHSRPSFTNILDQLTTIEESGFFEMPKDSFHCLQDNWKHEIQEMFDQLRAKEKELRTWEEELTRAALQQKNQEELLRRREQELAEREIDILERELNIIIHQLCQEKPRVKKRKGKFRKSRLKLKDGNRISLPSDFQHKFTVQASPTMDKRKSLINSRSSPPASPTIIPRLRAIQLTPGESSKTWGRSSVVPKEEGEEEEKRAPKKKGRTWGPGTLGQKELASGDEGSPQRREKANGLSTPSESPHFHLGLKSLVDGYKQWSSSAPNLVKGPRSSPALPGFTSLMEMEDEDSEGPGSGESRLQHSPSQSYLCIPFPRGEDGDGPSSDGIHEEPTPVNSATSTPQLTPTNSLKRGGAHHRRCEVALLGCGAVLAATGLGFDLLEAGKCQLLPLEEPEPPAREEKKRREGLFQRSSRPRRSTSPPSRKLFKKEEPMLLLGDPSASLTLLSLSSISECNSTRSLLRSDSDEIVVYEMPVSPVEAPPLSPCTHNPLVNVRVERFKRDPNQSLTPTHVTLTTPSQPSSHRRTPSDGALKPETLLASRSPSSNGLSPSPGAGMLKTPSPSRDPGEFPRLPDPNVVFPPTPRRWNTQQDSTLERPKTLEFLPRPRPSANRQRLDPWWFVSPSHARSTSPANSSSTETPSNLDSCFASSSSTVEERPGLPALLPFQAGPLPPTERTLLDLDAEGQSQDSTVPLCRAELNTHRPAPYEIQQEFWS
Angiopoietin-1 receptor (Homo sapiens), sequence (Q02763 whole entry): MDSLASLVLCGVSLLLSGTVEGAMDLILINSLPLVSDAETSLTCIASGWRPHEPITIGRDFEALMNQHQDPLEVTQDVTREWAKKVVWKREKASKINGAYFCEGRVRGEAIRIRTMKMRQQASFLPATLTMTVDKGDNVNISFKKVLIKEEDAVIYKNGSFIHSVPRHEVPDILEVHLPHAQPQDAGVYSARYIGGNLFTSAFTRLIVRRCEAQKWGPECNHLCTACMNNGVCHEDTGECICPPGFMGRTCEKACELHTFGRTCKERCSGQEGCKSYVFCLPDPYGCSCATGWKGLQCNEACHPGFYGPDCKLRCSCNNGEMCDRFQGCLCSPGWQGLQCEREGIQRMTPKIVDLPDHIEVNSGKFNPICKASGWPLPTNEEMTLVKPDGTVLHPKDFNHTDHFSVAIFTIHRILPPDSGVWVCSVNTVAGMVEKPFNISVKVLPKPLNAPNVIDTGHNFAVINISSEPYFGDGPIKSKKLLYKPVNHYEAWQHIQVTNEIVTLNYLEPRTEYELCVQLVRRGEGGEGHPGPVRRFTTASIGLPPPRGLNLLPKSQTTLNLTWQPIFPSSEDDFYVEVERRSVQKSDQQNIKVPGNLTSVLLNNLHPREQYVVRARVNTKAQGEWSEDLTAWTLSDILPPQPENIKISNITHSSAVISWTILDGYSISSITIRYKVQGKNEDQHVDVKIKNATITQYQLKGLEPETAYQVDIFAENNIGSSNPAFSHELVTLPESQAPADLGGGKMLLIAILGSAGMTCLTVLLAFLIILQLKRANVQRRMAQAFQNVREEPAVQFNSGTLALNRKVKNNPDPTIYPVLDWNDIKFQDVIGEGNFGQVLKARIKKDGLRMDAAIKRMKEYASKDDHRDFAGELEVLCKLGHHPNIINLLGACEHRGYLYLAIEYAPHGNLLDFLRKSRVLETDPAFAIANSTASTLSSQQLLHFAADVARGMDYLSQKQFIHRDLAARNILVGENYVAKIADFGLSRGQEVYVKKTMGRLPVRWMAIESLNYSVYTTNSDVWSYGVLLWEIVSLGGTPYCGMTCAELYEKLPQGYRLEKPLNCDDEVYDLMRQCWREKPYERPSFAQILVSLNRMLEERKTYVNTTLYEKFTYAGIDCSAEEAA
MAP kinase-interacting serine/threonine-protein kinase 1 (Homo sapiens), sequence (Q9BUB5 whole entry, looked up): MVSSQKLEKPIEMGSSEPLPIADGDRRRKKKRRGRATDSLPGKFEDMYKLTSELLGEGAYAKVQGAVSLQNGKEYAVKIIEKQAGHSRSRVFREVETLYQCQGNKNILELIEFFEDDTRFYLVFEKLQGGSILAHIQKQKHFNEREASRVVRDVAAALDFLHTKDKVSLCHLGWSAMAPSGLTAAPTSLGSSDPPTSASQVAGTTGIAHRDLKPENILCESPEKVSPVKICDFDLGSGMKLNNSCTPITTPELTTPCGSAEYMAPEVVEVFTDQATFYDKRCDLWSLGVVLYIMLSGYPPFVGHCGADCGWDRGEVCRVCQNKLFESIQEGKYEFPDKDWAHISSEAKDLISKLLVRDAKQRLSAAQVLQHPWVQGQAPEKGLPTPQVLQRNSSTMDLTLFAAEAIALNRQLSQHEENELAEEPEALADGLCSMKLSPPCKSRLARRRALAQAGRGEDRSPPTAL
Serine/threonine-protein kinase pim-2 (Homo sapiens), sequence (Q9P1W9 whole entry, looked up): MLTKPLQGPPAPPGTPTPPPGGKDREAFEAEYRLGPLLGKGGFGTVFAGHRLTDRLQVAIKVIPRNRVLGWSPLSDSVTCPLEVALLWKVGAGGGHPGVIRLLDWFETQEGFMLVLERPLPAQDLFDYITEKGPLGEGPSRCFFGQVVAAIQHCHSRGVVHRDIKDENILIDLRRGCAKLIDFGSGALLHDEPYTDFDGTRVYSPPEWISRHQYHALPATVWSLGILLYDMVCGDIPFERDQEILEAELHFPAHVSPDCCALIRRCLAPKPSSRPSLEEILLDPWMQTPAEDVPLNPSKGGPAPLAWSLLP
Serine/threonine-protein kinase 36 (Homo sapiens), sequence (Q9NRP7 whole entry, the tested form may be a part): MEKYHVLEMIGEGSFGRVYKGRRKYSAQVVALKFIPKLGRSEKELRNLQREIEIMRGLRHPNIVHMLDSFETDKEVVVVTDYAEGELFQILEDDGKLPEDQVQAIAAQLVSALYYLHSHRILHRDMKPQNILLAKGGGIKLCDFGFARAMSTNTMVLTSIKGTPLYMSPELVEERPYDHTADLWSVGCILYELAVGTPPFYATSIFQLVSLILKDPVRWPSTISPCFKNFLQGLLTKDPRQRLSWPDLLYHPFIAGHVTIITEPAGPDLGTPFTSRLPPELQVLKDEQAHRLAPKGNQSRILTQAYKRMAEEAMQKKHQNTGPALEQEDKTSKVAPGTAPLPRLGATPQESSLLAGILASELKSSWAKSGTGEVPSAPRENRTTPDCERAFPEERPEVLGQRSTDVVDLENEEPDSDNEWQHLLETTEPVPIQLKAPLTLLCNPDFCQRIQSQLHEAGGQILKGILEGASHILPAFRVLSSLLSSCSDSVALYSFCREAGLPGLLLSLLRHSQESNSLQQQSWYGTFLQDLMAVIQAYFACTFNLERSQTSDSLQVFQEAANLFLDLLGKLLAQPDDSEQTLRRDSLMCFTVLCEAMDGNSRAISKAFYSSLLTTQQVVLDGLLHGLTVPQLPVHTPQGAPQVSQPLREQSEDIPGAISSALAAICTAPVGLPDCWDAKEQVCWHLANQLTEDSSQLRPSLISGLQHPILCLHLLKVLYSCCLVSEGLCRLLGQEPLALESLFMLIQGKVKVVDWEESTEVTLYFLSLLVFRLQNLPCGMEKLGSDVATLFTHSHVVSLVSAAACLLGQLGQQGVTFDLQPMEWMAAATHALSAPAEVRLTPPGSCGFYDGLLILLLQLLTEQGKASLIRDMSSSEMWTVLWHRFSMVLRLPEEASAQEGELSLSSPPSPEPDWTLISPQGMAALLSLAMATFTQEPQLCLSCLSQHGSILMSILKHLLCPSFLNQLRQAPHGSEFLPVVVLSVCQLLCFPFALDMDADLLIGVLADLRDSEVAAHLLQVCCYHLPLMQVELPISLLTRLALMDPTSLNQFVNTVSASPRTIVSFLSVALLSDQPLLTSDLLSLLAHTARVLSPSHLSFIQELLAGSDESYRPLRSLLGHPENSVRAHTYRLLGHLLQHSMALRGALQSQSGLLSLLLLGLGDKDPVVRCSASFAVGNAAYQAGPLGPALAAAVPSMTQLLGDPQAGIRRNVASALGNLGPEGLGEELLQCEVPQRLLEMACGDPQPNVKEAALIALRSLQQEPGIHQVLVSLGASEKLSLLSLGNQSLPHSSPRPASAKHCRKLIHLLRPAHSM
Tyrosine-protein kinase Lyn (Homo sapiens), sequence (P07948 2-512 limits assumed): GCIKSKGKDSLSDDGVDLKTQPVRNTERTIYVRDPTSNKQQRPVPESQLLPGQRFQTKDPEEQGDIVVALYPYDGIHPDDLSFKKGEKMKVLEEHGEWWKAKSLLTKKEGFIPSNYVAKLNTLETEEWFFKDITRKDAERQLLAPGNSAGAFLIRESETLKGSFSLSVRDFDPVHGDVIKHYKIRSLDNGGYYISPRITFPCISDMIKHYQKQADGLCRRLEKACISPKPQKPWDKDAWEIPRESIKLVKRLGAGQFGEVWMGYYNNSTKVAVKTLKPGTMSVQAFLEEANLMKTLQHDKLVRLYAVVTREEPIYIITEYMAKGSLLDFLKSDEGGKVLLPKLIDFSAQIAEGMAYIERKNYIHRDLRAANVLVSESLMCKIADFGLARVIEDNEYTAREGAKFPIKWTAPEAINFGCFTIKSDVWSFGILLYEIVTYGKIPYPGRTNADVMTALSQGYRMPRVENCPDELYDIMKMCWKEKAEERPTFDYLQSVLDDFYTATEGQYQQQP

CCC(=N\O)/C(C)=C/c1ccc(F)cc1 [A-079]
inactive: inhibition [1] 14.7% | inhibition [2] 15.6% | residual activity [3] 100% | residual activity [4] 100% | residual activity [5] 84% | residual activity [6] 94% | residual activity [7] 78% | residual activity [8] 86% | residual activity [9] 100% | residual activity [10] 83% | residual activity [11] 82% | residual activity [12] 67% | residual activity [13] 92% | residual activity [14] 77% | residual activity [15] 87% | residual activity [16] 50% | residual activity [17] 89% | residual activity [18] 96% | residual activity [19] 75% | residual activity [20] 100% | inhibition [21] -8.66% | residual activity [22] 74% | residual activity [23] 100% | residual activity [24] 100% | residual activity [25] 100% | residual activity [26] 100% | residual activity [27] 56% | residual activity [28] 84% | residual activity [29] 70% | residual activity [30] 69% | residual activity [31] 100% | residual activity [32] 100% | residual activity [33] 75% | residual activity [34] 96% | residual activity [35] 100% | residual activity [36] 100% | residual activity [37] 94% | residual activity [38] 73% | residual activity [39] 71% | residual activity [40] 100% | inhibition [41] 5.31% | residual activity [42] 84% | residual activity [43] 79% | residual activity [44] 88%

CCC(=N\O)/C(C)=C/c1ccc(F)c(C)c1 [A-226]
inactive: inhibition [1] 16.7% | inhibition [2] -3.93% | residual activity [3] 78% | residual activity [4] 100% | residual activity [5] 89% | residual activity [6] 100% | residual activity [7] 83% | residual activity [8] 100% | residual activity [9] 93% | residual activity [10] 100% | residual activity [11] 82% | residual activity [12] 79% | residual activity [13] 81% | residual activity [14] 100% | residual activity [15] 100% | residual activity [16] 100% | residual activity [17] 85% | residual activity [18] 83% | residual activity [19] 97% | residual activity [20] 100% | inhibition [21] -6.57% | residual activity [22] 100% | residual activity [23] 85% | residual activity [24] 97% | residual activity [25] 98% | residual activity [26] 100% | residual activity [27] 100% | residual activity [28] 100% | residual activity [29] 70% | residual activity [30] 94% | residual activity [31] 100% | residual activity [32] 99% | residual activity [33] 96% | residual activity [35] 93% | residual activity [36] 100% | residual activity [37] 100% | residual activity [38] 100% | residual activity [39] 100% | residual activity [40] 96% | inhibition [41] 2.82% | residual activity [42] 100% | residual activity [43] 100% | residual activity [44] 100%
active: residual activity [34] 23%

Reference: ChEMBL document CHEMBL4507256 (2021)
